The record followed here is PubChem BioAssay (NCI).

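Following 48 hours of exposure in 96-well plates, responses at five concentrations were used to interpolate endpoints linearly. GI50: concentration for 50% inhibition of growth. TGI: concentration producing complete growth inhibition.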

Among the test systems are MDA-MB-231 breast; SK-OV-3 ovarian; MDA-MB-435; M14 melanoma; BT-549 breast; SK-MEL-28 melanoma; MCF7 breast; CAKI-1 renal; SF-295 CNS; OVCAR-3 ovarian.
Common to all, as to assay: DTP human tumour cell line panel, 48 h

A word on the GI50: it is the concentration at which growth is held to half of that of the control. One may read the TGI as the concentration at which net growth stops. As to `Cc1nc(NC(=S)Nc2ccc(F)cc2)sc1C(=O)NNC(=S)Nc1ccc(F)cc1`, the GI50 was 10.4 µM in the assay on MDA-MB-231 breast; 15.7 µM in the assay with SK-OV-3 ovarian; 7.34 µM with MDA-MB-435; 20.2 µM with M14 melanoma; 14.9 µM in the assay with BT-549 breast; 8.65 µM in the assay with SK-MEL-28 melanoma. For the same compound, the GI50 with MCF7 breast was 3.72 µM; in the assay on CAKI-1 renal, 11.4 µM; in the assay on SF-295 CNS it was 3.96 µM; in the assay with OVCAR-3 ovarian, 2.55 µM. In addition, the TGI is 25.1 µM in the assay on MDA-MB-231 breast; 61.6 µM with SK-OV-3 ovarian; 55.2 µM in the assay on MDA-MB-435; over 100 µM in the assay on M14 melanoma; 45.2 µM in the assay with BT-549 breast; 28.3 µM with SK-MEL-28 melanoma. For the same compound, the concentration for total growth inhibition (TGI) with MCF7 breast stood at 32.7 µM; in the assay with CAKI-1 renal it was 44.9 µM; with SF-295 CNS it was 21.1 µM; in the assay with OVCAR-3 ovarian it was 10.1 µM.

In the case of `CO/N=C1/NC(=O)/C(=C/c2ccc3ncccc3c2)S1`, the GI50 is over 25 µM in the assay on MDA-MB-231 breast; 7.78 µM with SK-OV-3 ovarian; 15 µM in the assay on MDA-MB-435; 9.85 µM in the assay on M14 melanoma; 9.1 µM in the assay on BT-549 breast; 19.5 µM in the assay with SK-MEL-28 melanoma. The GI50 is 4.45 µM with MCF7 breast, 8.49 µM in the assay on CAKI-1 renal, 19.9 µM in the assay with SF-295 CNS and 11.1 µM in the assay with OVCAR-3 ovarian. Besides, the concentration for total growth inhibition (TGI) in the assay on MDA-MB-231 breast, in the assay with SK-OV-3 ovarian, in the assay with MDA-MB-435, in the assay with M14 melanoma, in the assay on BT-549 breast and in the assay with SK-MEL-28 melanoma was over 25 µM throughout. The TGI in the assay with MCF7 breast, in the assay with CAKI-1 renal, in the assay with SF-295 CNS and in the assay with OVCAR-3 ovarian was over 25 µM each time.

For the compound `O=[N+]([O-])c1cc(Br)cc2c1[nH]c1ccc(Br)cc12`, the GI50 in the assay with MDA-MB-231 breast was 2.71 µM; in the assay on SK-OV-3 ovarian, 3.59 µM; in the assay on MDA-MB-435, 20.6 µM; with M14 melanoma, 14.6 µM; in the assay with BT-549 breast it was 18.7 µM; in the assay with SK-MEL-28 melanoma, 39 µM. For the same compound, the GI50 is 6.34 µM in the assay with MCF7 breast, 2.23 µM with CAKI-1 renal, 2.78 µM with SF-295 CNS and 2.56 µM with OVCAR-3 ovarian. Besides, the TGI with MDA-MB-231 breast is over 100 µM; in the assay with SK-OV-3 ovarian, 15.4 µM; in the assay with MDA-MB-435, over 100 µM; with M14 melanoma, over 100 µM; in the assay with BT-549 breast, 58 µM; in the assay on SK-MEL-28 melanoma, over 100 µM. Also, the TGI is over 100 µM in the assay with MCF7 breast, 11.9 µM in the assay on CAKI-1 renal, 9.35 µM with SF-295 CNS and 7.42 µM with OVCAR-3 ovarian.

As for `O=C(Nc1cc(Cl)ccc1O)c1cccc(NC2=C(Cl)C(=O)N(Cc3ccccc3)C2=O)c1`, the GI50 in the assay with MDA-MB-231 breast is 16.8 µM; in the assay with SK-OV-3 ovarian, 69.1 µM; with MDA-MB-435 it was 18.7 µM; in the assay on M14 melanoma, 17.8 µM; in the assay on BT-549 breast, 26.7 µM; in the assay with SK-MEL-28 melanoma it was 42.4 µM. The GI50 in the assay on MCF7 breast is 13.3 µM; with CAKI-1 renal, 22.5 µM; in the assay with SF-295 CNS, 20.5 µM; in the assay on OVCAR-3 ovarian, 23.4 µM. For the same compound, the TGI with MDA-MB-231 breast is 40.3 µM; in the assay on SK-OV-3 ovarian, over 100 µM; with MDA-MB-435, 38.6 µM; in the assay on M14 melanoma, 36.7 µM; with BT-549 breast, 80.5 µM; in the assay on SK-MEL-28 melanoma, over 100 µM. Besides, the TGI in the assay with MCF7 breast was 36.9 µM; in the assay on CAKI-1 renal, 68 µM; with SF-295 CNS it was 47.6 µM; with OVCAR-3 ovarian it was 54.4 µM.

Take `COc1ccc(C(=O)c2cc(OC)c(OC)c(OC)c2)cc1O`: the concentration for 50% growth inhibition (GI50) in the assay with MDA-MB-231 breast was 0.0559 µM; with SK-OV-3 ovarian, 0.395 µM; in the assay on MDA-MB-435, under 0.01 µM; in the assay with M14 melanoma, under 0.01 µM; in the assay on BT-549 breast, 0.0337 µM; in the assay on SK-MEL-28 melanoma, over 80.8 µM. Further, the 50% growth inhibitory concentration (GI50) with MCF7 breast is 0.0327 µM; in the assay on CAKI-1 renal it was 0.363 µM; in the assay on SF-295 CNS, 0.367 µM; in the assay with OVCAR-3 ovarian, 0.0207 µM. Further, the concentration for total growth inhibition (TGI) in the assay on MDA-MB-231 breast, in the assay on SK-OV-3 ovarian, in the assay with M14 melanoma, in the assay on BT-549 breast, in the assay on SK-MEL-28 melanoma and in the assay with MCF7 breast was over 100 µM each time. The TGI with CAKI-1 renal was over 100 µM; in the assay on SF-295 CNS it was over 100 µM; with OVCAR-3 ovarian, 0.0511 µM.

As to `Cl.Fc1c[c-]c(-c2ccccn2)c(F)c1.[Pt].c1ccc([PH+](CC[PH+](c2ccccc2)c2ccccc2)c2ccccc2)cc1`, the 50% growth inhibitory concentration (GI50) in the assay with MDA-MB-231 breast was 0.178 µM; with SK-OV-3 ovarian, 0.184 µM; with MDA-MB-435 it was 0.127 µM; with M14 melanoma, 0.0741 µM; in the assay with BT-549 breast, 0.0867 µM; in the assay on SK-MEL-28 melanoma, 0.167 µM. In addition, the GI50 is 0.0625 µM in the assay on MCF7 breast, 0.246 µM in the assay with CAKI-1 renal, 0.0474 µM in the assay on SF-295 CNS and 0.0827 µM with OVCAR-3 ovarian. Also, the TGI in the assay with MDA-MB-231 breast is 0.496 µM; in the assay on SK-OV-3 ovarian it was 0.754 µM; in the assay with MDA-MB-435, 0.51 µM; in the assay on M14 melanoma, 1.22 µM; in the assay with BT-549 breast, 0.978 µM; in the assay with SK-MEL-28 melanoma it was 1.4 µM. Further, the total growth inhibition concentration (TGI) was 1.1 µM with MCF7 breast, 0.948 µM in the assay on CAKI-1 renal, 0.328 µM with SF-295 CNS and 0.414 µM in the assay on OVCAR-3 ovarian.
